Results taken from patent publication US10611762B2, “Crystalline forms of a FGFR inhibitor and processes for preparing the same” (Incyte Corporation, priority 2017, dated 2020).
In brackets after ≈: the same amount, converted by molar mass. Each block holds one compound with its values, some of them ahead of it.

Key:
Assay type in all cases: physicochemical
[1] = Solubility measurement in various solvents at 23 ± 1° C. (Procedure 1)
Method: (§1) The solubility of the Compound 1 Form I was measured according to Procedure 1 for solubility in 23±1° C. (Table 13) and Procedure 2 for 50±1° C.

[2] = Solubility measurement in various solvents at 50 ± 1° C. (Procedure 2)
Method: as §1

[3] = Competitive slurry experiments (stability relationship of Compound 1 forms); settings: in acetone/water (2:1) and acetone/water (1:1), 23-25° C.
Method: To evaluate the transformation of Compound 1 solid forms, competitive slurry experiments in production crystallization solvents at 23-25° C. were performed with a mixture of […] polymorphs (Form I through Form XI) according to the procedures in Table 25 (acetone/water 2:1) and Table 26 (acetone/water 1:1).

solubility ([1]; 1-Propanol, 23 °C, organic solvent or mixture, thermodynamic from solid, 1-Propanol, read-out: Solubility at 23 ± 1° C.): 1720 µg/mL (≈ 4.01 mM)
solubility ([1]; 2-methoxyethanol, 23 °C, organic solvent or mixture, thermodynamic from solid, 2-Methoxyethanol, read-out: Solubility at 23 ± 1° C.): 20200 µg/mL (≈ 47 mM)
solubility ([1]; Acetone/water (1:1), 23 °C, aqueous with cosolvent or surfactant or cyclodextrin, thermodynamic from solid, Acetone/water (1:1), read-out: Solubility at 23 ± 1° C.): 3970 µg/mL (≈ 9.24 mM)
solubility ([1]; Acetone/water (1:2), 23 °C, aqueous with cosolvent or surfactant or cyclodextrin, thermodynamic from solid, Acetone/water (1:2), read-out: Solubility at 23 ± 1° C.): 860 µg/mL (≈ 2 mM)
solubility ([1]; Acetone/water (1:4), 23 °C, aqueous with cosolvent or surfactant or cyclodextrin, thermodynamic from solid, Acetone/water (1:4), read-out: Solubility at 23 ± 1° C.): 170 µg/mL (≈ 0.396 mM)
solubility ([1]; Acetone/water (2:1), 23 °C, aqueous with cosolvent or surfactant or cyclodextrin, thermodynamic from solid, Acetone/water (2:1), read-out: Solubility at 23 ± 1° C.): 12500 µg/mL (≈ 29 mM)
solubility ([1]; Acetone/water (4:1), 23 °C, aqueous with cosolvent or surfactant or cyclodextrin, thermodynamic from solid, Acetone/water (4:1), read-out: Solubility at 23 ± 1° C.): 19400 µg/mL (≈ 45.2 mM)
solubility ([1]; DCM/MeOH (1:1), 23 °C, organic solvent or mixture, thermodynamic from solid, DCM/MeOH (1:1), read-out: Solubility at 23 ± 1° C.): > 50000 µg/mL
solubility ([1]; DMF, 23 °C, organic solvent or mixture, thermodynamic from solid, DMF, read-out: Solubility at 23 ± 1° C.): > 50000 µg/mL
solubility ([1]; DMSO, 23 °C, organic solvent or mixture, thermodynamic from solid, DMSO, read-out: Solubility at 23 ± 1° C.): > 50000 µg/mL
solubility ([1]; DMSO, DMF, DCM/MeOH (1:1), THF/water (4:1), 23 °C, organic solvent or mixture, thermodynamic from solid, at 23° C. in DMSO, DMF, DCM/MeOH (1:1), and THF/water (4:1), read-out: Solubility (completely soluble)): > 50000 µg/mL
solubility ([1]; Dichloromethane, 23 °C, organic solvent or mixture, thermodynamic from solid, Dichloromethane, read-out: Solubility at 23 ± 1° C.): 12400 µg/mL (≈ 29 mM)
solubility ([1]; EtOAc, 23 °C, organic solvent or mixture, thermodynamic from solid, EtOAc, read-out: Solubility at 23 ± 1° C.): 890 µg/mL (≈ 2.07 mM)
solubility ([1]; EtOH, 23 °C, organic solvent or mixture, thermodynamic from solid, EtOH, read-out: Solubility at 23 ± 1° C.): 2010 µg/mL (≈ 4.68 mM)
solubility ([1]; IPA, 23 °C, organic solvent or mixture, thermodynamic from solid, IPA, read-out: Solubility at 23 ± 1° C.): 900 µg/mL (≈ 2.1 mM)
solubility ([1]; IPAc, 23 °C, organic solvent or mixture, thermodynamic from solid, IPAc, read-out: Solubility at 23 ± 1° C.): 440 µg/mL (≈ 1.02 mM)
solubility ([1]; MEK, 23 °C, organic solvent or mixture, thermodynamic from solid, MEK, read-out: Solubility at 23 ± 1° C.): 3580 µg/mL (≈ 8.34 mM)
solubility ([1]; MIBK, 23 °C, organic solvent or mixture, thermodynamic from solid, MIBK, read-out: Solubility at 23 ± 1° C.): 910 µg/mL (≈ 2.12 mM)
solubility ([1]; MeCN, 23 °C, organic solvent or mixture, thermodynamic from solid, MeCN, read-out: Solubility at 23 ± 1° C.): 4590 µg/mL (≈ 10.7 mM)
solubility ([1]; THF, 23 °C, organic solvent or mixture, thermodynamic from solid, THF, read-out: Solubility at 23 ± 1° C.): 3770 µg/mL (≈ 8.78 mM)
solubility ([1]; THF/water (4:1), 23 °C, organic solvent or mixture, thermodynamic from solid, THF/water (4:1), read-out: Solubility at 23 ± 1° C.): > 50000 µg/mL
solubility ([1]; acetone, 23 °C, organic solvent or mixture, thermodynamic from solid, Acetone, read-out: Solubility at 23 ± 1° C.): 5100 µg/mL (≈ 11.9 mM)
Solubility (slightly soluble) ([1]; at 23° C. in MeCN, 1,4-dioxane, MeOH, 2-methoxyethanol, THF, acetone, n-BuOH, EtOH, ethyl formate, 1-propanol, MEK, acetone water (2:1), acetone water (1:1), chloroform and dichloromethane): 1000 to 50000 µg/mL
solubility ([1]; ethyl formate, 23 °C, organic solvent or mixture, thermodynamic from solid, Ethyl formate, read-out: Solubility at 23 ± 1° C.): 2200 µg/mL (≈ 5.12 mM)
solubility ([1]; isobutyl acetate, 23 °C, organic solvent or mixture, thermodynamic from solid, Isobutyl acetate, read-out: Solubility at 23 ± 1° C.): 280 µg/mL (≈ 0.652 mM)
solubility ([1]; methanol, 23 °C, organic solvent or mixture, thermodynamic from solid, Methanol, read-out: Solubility at 23 ± 1° C.): 5350 µg/mL (≈ 12.5 mM)
solubility ([1]; n-BuOH, 23 °C, organic solvent or mixture, thermodynamic from solid, n-BuOH, read-out: Solubility at 23 ± 1° C.): 1180 µg/mL (≈ 2.75 mM)
solubility ([1]; organic solvent or mixture, thermodynamic from solid, at 23° C. in heptane, hexane, toluene, MTBE, isobutyl acetate, IPAc, water, acetone water (1:4), MIBK, EtOAc, IPA, and acetone water (1:2), read-out: Solubility (insoluble)): < 1000 µg/mL
solubility ([1]; water, 23 °C, water, thermodynamic from solid, Water, read-out: Solubility at 23 ± 1° C.): 10 µg/mL (≈ 0.0233 mM)
solubility ([2]; 1-Propanol, 50 °C, organic solvent or mixture, thermodynamic from solid, 1-Propanol, read-out: Solubility at 50 ± 1° C.): 2890 µg/mL (≈ 6.73 mM)
solubility ([2]; 2-methoxyethanol, 50 °C, organic solvent or mixture, thermodynamic from solid, 2-Methoxyethanol, read-out: Solubility at 50 ± 1° C.): 36600 µg/mL (≈ 85.3 mM)
solubility ([2]; 50 °C, organic solvent or mixture, thermodynamic from solid, at 50° C. in DMSO, DMF, DCM/MeOH (1:1), THF/water (4:1), acetone/water (4:1) and chloroform, read-out: Solubility (completely soluble)): > 50000 µg/mL
solubility ([2]; 50 °C, organic solvent or mixture, thermodynamic from solid, at 50° C. in heptane, hexane, toluene, MTBE, isobutyl acetate, IPAc, water, and acetone water (1:4), read-out: Solubility (insoluble)): < 1000 µg/mL
solubility ([2]; Acetone/water (1:1), 50 °C, aqueous with cosolvent or surfactant or cyclodextrin, thermodynamic from solid, Acetone/water (1:1), read-out: Solubility at 50 ± 1° C.): 12600 µg/mL (≈ 29.4 mM)
solubility ([2]; Acetone/water (1:2), 50 °C, aqueous with cosolvent or surfactant or cyclodextrin, thermodynamic from solid, Acetone/water (1:2), read-out: Solubility at 50 ± 1° C.): 3530 µg/mL (≈ 8.22 mM)
solubility ([2]; Acetone/water (1:4), 50 °C, aqueous with cosolvent or surfactant or cyclodextrin, thermodynamic from solid, Acetone/water (1:4), read-out: Solubility at 50 ± 1° C.): 570 µg/mL (≈ 1.33 mM)
solubility ([2]; Acetone/water (2:1), 50 °C, aqueous with cosolvent or surfactant or cyclodextrin, thermodynamic from solid, Acetone/water (2:1), read-out: Solubility at 50 ± 1° C.): 47000 µg/mL (≈ 109 mM)
solubility ([2]; Acetone/water (4:1), 50 °C, aqueous with cosolvent or surfactant or cyclodextrin, thermodynamic from solid, Acetone/water (4:1), read-out: Solubility at 50 ± 1° C.): > 50000 µg/mL
solubility ([2]; DCM/MeOH (1:1), 50 °C, organic solvent or mixture, thermodynamic from solid, DCM/MeOH (1:1), read-out: Solubility at 50 ± 1° C.): > 50000 µg/mL
solubility ([2]; DMF, 50 °C, organic solvent or mixture, thermodynamic from solid, DMF, read-out: Solubility at 50 ± 1° C.): > 50000 µg/mL
solubility ([2]; DMSO, 50 °C, organic solvent or mixture, thermodynamic from solid, DMSO, read-out: Solubility at 50 ± 1° C.): > 50000 µg/mL
solubility ([2]; EtOAc, 50 °C, organic solvent or mixture, thermodynamic from solid, EtOAc, read-out: Solubility at 50 ± 1° C.): 2710 µg/mL (≈ 6.31 mM)
solubility ([2]; EtOH, 50 °C, organic solvent or mixture, thermodynamic from solid, EtOH, read-out: Solubility at 50 ± 1° C.): 8560 µg/mL (≈ 19.9 mM)
solubility ([2]; IPA, 50 °C, organic solvent or mixture, thermodynamic from solid, IPA, read-out: Solubility at 50 ± 1° C.): 2220 µg/mL (≈ 5.17 mM)
solubility ([2]; IPAc, 50 °C, organic solvent or mixture, thermodynamic from solid, IPAc, read-out: Solubility at 50 ± 1° C.): 980 µg/mL (≈ 2.28 mM)
solubility ([2]; MEK, 50 °C, organic solvent or mixture, thermodynamic from solid, MEK, read-out: Solubility at 50 ± 1° C.): 3730 µg/mL (≈ 8.69 mM)
solubility ([2]; MIBK, 50 °C, organic solvent or mixture, thermodynamic from solid, MIBK, read-out: Solubility at 50 ± 1° C.): 2950 µg/mL (≈ 6.87 mM)
solubility ([2]; MeCN, 50 °C, organic solvent or mixture, thermodynamic from solid, MeCN, read-out: Solubility at 50 ± 1° C.): 11600 µg/mL (≈ 26.9 mM)
solubility ([2]; THF, 50 °C, organic solvent or mixture, thermodynamic from solid, THF, read-out: Solubility at 50 ± 1° C.): 11300 µg/mL (≈ 26.3 mM)
solubility ([2]; THF/water (4:1), 50 °C, organic solvent or mixture, thermodynamic from solid, THF/water (4:1), read-out: Solubility at 50 ± 1° C.): > 50000 µg/mL
solubility ([2]; acetone, 50 °C, organic solvent or mixture, thermodynamic from solid, Acetone, read-out: Solubility at 50 ± 1° C.): 15500 µg/mL (≈ 36.1 mM)
solubility ([2]; ethyl formate, 50 °C, organic solvent or mixture, thermodynamic from solid, Ethyl formate, read-out: Solubility at 50 ± 1° C.): 6580 µg/mL (≈ 15.3 mM)
solubility ([2]; hexane, 50 °C, organic solvent or mixture, thermodynamic from solid, Hexane, read-out: Solubility at 50 ± 1° C.): 60 µg/mL (≈ 0.14 mM)
solubility ([2]; isobutyl acetate, 50 °C, organic solvent or mixture, thermodynamic from solid, Isobutyl acetate, read-out: Solubility at 50 ± 1° C.): 750 µg/mL (≈ 1.75 mM)
solubility ([2]; methanol, 50 °C, organic solvent or mixture, thermodynamic from solid, Methanol, read-out: Solubility at 50 ± 1° C.): 17900 µg/mL (≈ 41.6 mM)
solubility ([2]; n-BuOH, 50 °C, organic solvent or mixture, thermodynamic from solid, n-BuOH, read-out: Solubility at 50 ± 1° C.): 6200 µg/mL (≈ 14.4 mM)
solubility ([2]; organic solvent or mixture, thermodynamic from solid, at 50° C. in MeCN, 1,4-dioxane, MeOH, 2-methoxyethanol, THF, acetone, n-BuOH, EtOH, ethyl formate, 1-propanol, MEK, acetone water (2:1), acetone water (1:1), MIBK, EtOAc, IPA, and acetone water (1:2), read-out: Solubility (slightly soluble)): 1000 to 50000 µg/mL (≈ 2.33 to 116 mM)
solubility ([2]; water, 50 °C, water, thermodynamic from solid, Water, read-out: Solubility at 50 ± 1° C.): 10 µg/mL (≈ 0.0233 mM)
Relative stability of polymorphic forms [3]: most stable polymorphic form
Compound: C=CC(=O)NCc1cc2c(cn1)CN(c1c(F)c(OC)cc(OC)c1F)C(=O)C21CC1 [Compound 1 Form I, N-((2′-(2,6-difluoro-3,5-dimethoxyphenyl)-3′-oxo-2′,3′-dihydro-1′H-spiro[cyclopropane-1,4′-[2,7]naphthyridine]-6′-yl)methyl)acrylamide]

solubility ([1]; 1,4-dioxane, 23 °C, organic solvent or mixture, thermodynamic from solid, 1,4-Dioxane, read-out: Solubility at 23 ± 1° C.): 3020 µg/mL (≈ 7.03 mM)
solubility ([2]; 1,4-dioxane, 50 °C, organic solvent or mixture, thermodynamic from solid, 1,4-Dioxane, read-out: Solubility at 50 ± 1° C.): 37800 µg/mL (≈ 88 mM)
Compound: C=CC(=O)NCc1cc2c(cn1)CN(c1c(F)c(OC)cc(OC)c1F)C(=O)C21CC1 [Form III]

solubility ([1]; Chloroform, 23 °C, organic solvent or mixture, thermodynamic from solid, Chloroform, read-out: Solubility at 23 ± 1° C.): 26700 µg/mL (≈ 62.1 mM)
solubility ([2]; Chloroform, 50 °C, organic solvent or mixture, thermodynamic from solid, Chloroform, read-out: Solubility at 50 ± 1° C.): > 50000 µg/mL
Compound: C=CC(=O)NCc1cc2c(cn1)CN(c1c(F)c(OC)cc(OC)c1F)C(=O)C21CC1 [Form II]

solubility ([1]; toluene, 23 °C, organic solvent or mixture, thermodynamic from solid, Toluene, read-out: Solubility at 23 ± 1° C.): 150 µg/mL (≈ 0.349 mM)
solubility ([2]; toluene, 50 °C, organic solvent or mixture, thermodynamic from solid, Toluene, read-out: Solubility at 50 ± 1° C.): 170 µg/mL (≈ 0.396 mM)
Compound: C=CC(=O)NCc1cc2c(cn1)CN(c1c(F)c(OC)cc(OC)c1F)C(=O)C21CC1 [Form IV]
